Experimental data: ChEMBL document CHEMBL6182877, “Design, synthesis, and activity evaluation of novel STING inhibitors based on C170 and H151” (Eur J Med Chem, 2025)
The source made the active and inactive calls. The calls are words filed in the database; no cut-off is given here.

Tests used:
[1] = test system: Mus musculus; test: Anti-inflammatory activity in cisplatin-induced acute kidney injury C57BL/6J mouse model assessed as reduction in ALT level in plasma at 10 to 20 mg/kg, ip; type: functional, organism-based; settings: dose 10-20 mg/kg
[2] = target: Stimulator of interferon genes protein (Homo sapiens) (UniProt Q86WV6); test: Inhibition of STING activation in human THP-1 cells assessed as reduction in SR717-induced CXCL10 mRNA expression at 0.03 to 0.3 uM pretreated with compound for 1 hr followed by SR717 induction and measured after 4 hrs by qPCR analysis; type: cell-based; settings: dose 0.03-0.3 µM, time 5.0 hrs
[3] = test system: Mus musculus; test: Protection against cisplatin-induced C57BL/6J mouse assessed as reduction in tubular epithelial edema in kidney at 10 to 20 mg/kg, ip pretreated with compound for 1 hr followed by cisplatin induction and measured after 4 hrs by H and E staining based analysis; type: functional, organism-based; settings: dose 10-20 mg/kg, time 5.0 hrs
[4] = test system: Mus musculus; test: Protection against cisplatin-induced C57BL/6J mouse assessed as reduction in tubular obstruction in kidney at 10 to 20 mg/kg, ip pretreated with compound for 1 hr followed by cisplatin induction and measured after 4 hrs by H and E staining based analysis; type: functional, organism-based; settings: dose 10-20 mg/kg, time 5.0 hrs
[5] = test system: Mus musculus; test: Protection against cisplatin-induced C57BL/6J mouse assessed as effect on inflammatory cell infiltration in spleen at 10 to 20 mg/kg, ip pretreated with compound for 1 hr followed by cisplatin induction and measured after 4 hrs by H and E staining based analysis; type: functional, organism-based; settings: dose 10-20 mg/kg, time 5.0 hrs
[6] = target: T1, Stimulator of interferon genes protein (Mus musculus) (UniProt Q3TBT3); test: Binding affinity to STING in mouse RAW264.7 cells assessed as increase in thermal stability at 30 uM 47 to 62 degreeC incubated for 8 hrs by CETSA analysis; type: cell-based
T1 sequence (whole entry): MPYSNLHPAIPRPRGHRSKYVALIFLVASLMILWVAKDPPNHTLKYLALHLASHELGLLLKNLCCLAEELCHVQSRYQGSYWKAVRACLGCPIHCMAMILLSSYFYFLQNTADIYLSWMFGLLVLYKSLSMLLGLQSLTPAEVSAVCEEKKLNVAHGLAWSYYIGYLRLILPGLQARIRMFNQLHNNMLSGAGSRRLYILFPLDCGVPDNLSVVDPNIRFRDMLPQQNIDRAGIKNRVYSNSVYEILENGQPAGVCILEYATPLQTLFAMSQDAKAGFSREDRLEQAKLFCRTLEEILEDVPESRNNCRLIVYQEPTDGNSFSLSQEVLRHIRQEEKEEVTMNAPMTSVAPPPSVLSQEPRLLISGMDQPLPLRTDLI

[7] = test system: Mus musculus; test: Renoprotective activity in cisplatin-induced acute kidney injury C57BL/6J mouse model assessed as reduction in […] level at 10 to 20 mg/kg, ip; type: functional, organism-based; settings: dose 10-20 mg/kg
[8] = test system: Mus musculus; test: Protection against cisplatin-induced C57BL/6J mouse assessed as reduction in inflammatory cell exudation in kidney at 10 to 20 mg/kg, ip pretreated with compound for 1 hr followed by cisplatin induction and measured after 4 hrs by H and E staining based analysis; type: functional, organism-based; settings: dose 10-20 mg/kg, time 5.0 hrs
[9] = test system: Mus musculus; test: Anti-inflammatory activity in cisplatin-induced acute kidney injury C57BL/6J mouse model assessed as reduction in AST level in plasma at 10 to 20 mg/kg, ip; type: functional, organism-based; settings: dose 10-20 mg/kg
[10] = test system: Mus musculus; test: Protection against cisplatin-induced C57BL/6J mouse assessed as reduction in tubular structure disintegration in kidney at 10 to 20 mg/kg, ip pretreated with compound for 1 hr followed by cisplatin induction and measured after 4 hrs by H and E staining based analysis; type: functional, organism-based; settings: dose 10-20 mg/kg, time 5.0 hrs
[11] = test system: Mus musculus; test: Protection against cisplatin-induced C57BL/6J mouse assessed as effect on fibrotic tissue proliferation in spleen at 10 to 20 mg/kg, ip pretreated with compound for 1 hr followed by cisplatin induction and measured after 4 hrs by H and E staining based analysis; type: functional, organism-based; settings: dose 10-20 mg/kg, time 5.0 hrs
[12] = test system: Mus musculus; test: Protection against cisplatin-induced C57BL/6J mouse assessed as effect on enlargement of splenic corpuscle in spleen at 10 to 20 mg/kg, ip pretreated with compound for 1 hr followed by cisplatin induction and measured after 4 hrs by H and E staining based analysis; type: functional, organism-based; settings: dose 10-20 mg/kg, time 5.0 hrs
[13] = test system: Mus musculus; test: Protection against cisplatin-induced C57BL/6J mouse assessed as reduction in vacuole-like changes in kidney at 10 to 20 mg/kg, ip pretreated with compound for 1 hr followed by cisplatin induction and measured after 4 hrs by H and E staining based analysis; type: functional, organism-based; settings: dose 10-20 mg/kg, time 5.0 hrs
[14] = test system: Mus musculus; test: Anti-inflammatory activity in cisplatin-induced acute kidney injury C57BL/6J mouse model assessed as reduction in kidney index at 10 to 20 mg/kg, ip; type: functional, organism-based; settings: dose 10-20 mg/kg
[15] = target: Stimulator of interferon genes protein (Homo sapiens) (UniProt Q86WV6); test: Inhibition of STING activation in human THP-1 cells assessed as reduction in SR717-induced IFNbeta mRNA expression at 0.03 to 0.3 uM pretreated with compound for 1 hr followed by SR717 induction and measured after 4 hrs by qPCR analysis; type: cell-based; settings: dose 0.03-0.3 µM, time 5.0 hrs
[16] = test system: Mus musculus; test: Renoprotective activity in cisplatin-induced acute kidney injury C57BL/6J mouse model assessed as reduction in BUN level at 10 mg/kg, ip; type: functional, organism-based
[17] = test system: Mus musculus; test: Anti-inflammatory activity against MSA-2 induced C57BL/6 mouse model assessed as reduction in splenic index at 30 mg/kg, ip pretreated with compound for 1 hr followed by MSA-2 induction and measured after 4 hrs; type: functional, organism-based; settings: time 5.0 hrs
[18] = Cytotoxicity against HUVEC cells assessed as cell viability by MTT assay; type: toxicity, cell-based; settings: human
[19] = Toxicity in male C57BL/6J mouse assessed as kidney damage at 10 mg/kg, ip by H and E staining based analysis; type: organism-based; settings: in vivo
[20] = Toxicity in male C57BL/6J mouse assessed as body weight loss at 10 mg/kg, ip; type: organism-based; settings: in vivo
[21] = test system: THP-1; test: Cytotoxicity against human THP-1 cells assessed as cell viability by MTT assay
[22] = Cytotoxicity against HEK293T cells assessed as cell viability by MTT assay; type: toxicity, cell-based, HEK-293T; settings: human
[23] = test system: Mus musculus; test: Renoprotective activity in cisplatin-induced acute kidney injury C57BL/6J mouse model assessed as reduction in […] level at 10 mg/kg, ip; type: functional, organism-based
[24] = test system: RAW264.7; test: Cytotoxicity against mouse RAW264.7 cells assessed as cell viability by MTT assay
[25] = test system: Mus musculus; test: Anti-inflammatory activity against MSA-2 induced C57BL/6 mouse model assessed as reduction in IL-6 level in plasma at 30 mg/kg, ip pretreated with compound for 1 hr followed by MSA-2 induction and measured after 4 hr; type: functional, organism-based; settings: time 5.0 hrs
[26] = test system: Mus musculus; test: Anti-inflammatory activity against MSA-2 induced C57BL/6 mouse model assessed as reduction in IFN-beta level in plasma at 30 mg/kg, ip pretreated with compound for 1 hr followed by MSA-2 induction and measured after 4 hr; type: functional, organism-based; settings: time 5.0 hrs
[27] = test system: Mus musculus; test: Anti-inflammatory activity against MSA-2 induced C57BL/6 mouse model assessed as downregulation of TBK1 expression in spleen at 30 mg/kg, ip pretreated with compound for 1 hr followed by MSA-2 induction and measured after 4 hrs; type: functional, organism-based; settings: time 5.0 hrs
[28] = target: T2, Serine/threonine-protein kinase TBK1 (Homo sapiens) (UniProt Q9UHD2); test: Inhibition of TBK1 phosphorylation in SR717-induced human THP-1 cells at 0.2 to 5 uM pretreated with compound for 1 hr followed by SR717 induction and measured after 4 hrs by Western blot analysis; type: cell-based; settings: dose 0.2-5 µM, time 5.0 hrs
T2 sequence (whole entry): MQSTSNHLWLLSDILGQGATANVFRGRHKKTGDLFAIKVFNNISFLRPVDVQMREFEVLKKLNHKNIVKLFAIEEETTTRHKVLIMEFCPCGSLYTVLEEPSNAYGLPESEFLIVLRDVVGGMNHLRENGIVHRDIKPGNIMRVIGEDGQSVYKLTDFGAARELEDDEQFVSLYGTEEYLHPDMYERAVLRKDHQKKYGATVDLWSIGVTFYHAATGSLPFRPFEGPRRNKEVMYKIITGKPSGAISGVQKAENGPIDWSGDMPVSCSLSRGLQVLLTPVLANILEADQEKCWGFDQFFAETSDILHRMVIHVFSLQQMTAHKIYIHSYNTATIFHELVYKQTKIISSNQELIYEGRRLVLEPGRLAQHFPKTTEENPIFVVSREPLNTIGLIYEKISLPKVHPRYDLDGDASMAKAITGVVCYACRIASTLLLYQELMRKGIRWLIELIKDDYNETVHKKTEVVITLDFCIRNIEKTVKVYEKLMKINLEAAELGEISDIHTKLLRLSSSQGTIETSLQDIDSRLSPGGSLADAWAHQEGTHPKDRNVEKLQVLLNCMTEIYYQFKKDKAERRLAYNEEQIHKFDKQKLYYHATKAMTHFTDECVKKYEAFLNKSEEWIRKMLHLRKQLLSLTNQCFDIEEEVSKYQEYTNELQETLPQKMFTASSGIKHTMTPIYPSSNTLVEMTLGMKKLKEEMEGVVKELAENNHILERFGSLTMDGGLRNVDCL

[29] = target: T3, Interferon regulatory factor 3 (Homo sapiens) (UniProt Q14653); test: Inhibition of IRF3 phosphorylation in SR717-induced human THP-1 cells at 0.2 to 5 uM pretreated with compound for 1 hr followed by SR717 induction and measured after 4 hrs by Western blot analysis; type: cell-based; settings: dose 0.2-5 µM, time 5.0 hrs
T3 sequence (whole entry): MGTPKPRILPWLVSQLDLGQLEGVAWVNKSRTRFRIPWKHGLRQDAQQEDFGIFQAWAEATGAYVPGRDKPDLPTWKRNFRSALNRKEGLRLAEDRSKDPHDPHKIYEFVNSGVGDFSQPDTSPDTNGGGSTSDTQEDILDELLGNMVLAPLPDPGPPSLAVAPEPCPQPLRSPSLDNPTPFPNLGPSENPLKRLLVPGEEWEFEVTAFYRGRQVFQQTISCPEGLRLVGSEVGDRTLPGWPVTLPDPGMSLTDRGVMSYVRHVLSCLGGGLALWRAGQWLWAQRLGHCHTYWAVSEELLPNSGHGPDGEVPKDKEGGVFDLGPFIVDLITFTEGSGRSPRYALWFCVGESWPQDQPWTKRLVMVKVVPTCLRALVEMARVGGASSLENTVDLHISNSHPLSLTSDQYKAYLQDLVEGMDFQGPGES

[30] = test system: RAW264.7; test: Antiinflammatory activity in mouse RAW264.7 cells assessed as inhibition of LPS-induced NO release at 0.2 to 5 uM pretreated with compound for 1 hr; type: functional, cell-based; settings: dose 0.2-5 µM
[31] = target: T1, Stimulator of interferon genes protein (Mus musculus); test: Binding affinity to STING in mouse RAW264.7 cells assessed as increase in thermal stability at 30 uM 40 to 61 degreeC incubated for 8 hrs by CETSA analysis; type: cell-based

Sequence of Stimulator of interferon genes protein (Homo sapiens) (Q86WV6 whole entry): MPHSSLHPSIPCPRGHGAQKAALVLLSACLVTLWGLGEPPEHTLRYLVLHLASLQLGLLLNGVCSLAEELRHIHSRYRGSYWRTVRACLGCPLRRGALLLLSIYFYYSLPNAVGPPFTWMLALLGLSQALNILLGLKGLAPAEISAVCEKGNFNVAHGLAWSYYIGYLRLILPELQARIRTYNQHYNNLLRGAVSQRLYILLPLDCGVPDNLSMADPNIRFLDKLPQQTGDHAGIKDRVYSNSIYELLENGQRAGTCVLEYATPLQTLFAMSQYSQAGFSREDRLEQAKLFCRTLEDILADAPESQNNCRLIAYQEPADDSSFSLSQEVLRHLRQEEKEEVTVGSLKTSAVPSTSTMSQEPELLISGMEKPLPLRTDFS

SMILES | Activity [16] | Activity [17] | IC50 [18] [µM] | Activity [19] | Activity [20] | IC50 [21] [µM] | IC50 [22] [µM] | Activity [23] | IC50 [24] [µM] | Activity [25] | Activity [26] | Activity [27] | also measured
O=C(Nc1ccc(OCCCC(F)(F)F)cc1)Nc1c[nH]c2ccccc12 | – | – | – | – | – | – | – | – | – | – | – | – | Activity [1]: Active; inhibition [2]: Active; Activity [3]: Active; Activity [4]: Active; Activity [5]: Active; Activity [6]: Active; Activity [7]: Active; Activity [8]: Active; Activity [9]: Active; Activity [10]: Active; Activity [11]: Active; Activity [12]: Active; Activity [13]: Active; Activity [14]: Active; inhibition [15]: Active
CCCCc1ccc(NC(=O)c2ccc([N+](=O)[O-])o2)cc1 | Active | Active | 4.77 | Non-toxic | Non-toxic | 8.07 | 2.81 | Active | 0.89 | Active | Active | Active | –
C/C=C/C=C/C(=O)OCc1ccc(NC(=O)c2ccc([N+](=O)[O-])o2)cc1 | – | – | – | – | – | – | 8.57 | – | 0.49 | – | – | – | –
O=C(Nc1ccc(OCCCC(F)(F)F)cc1)c1ccc([N+](=O)[O-])o1 | Active | Active | 10.4 | Non-toxic | Non-toxic | 16.8 | 11.3 | Active | 5.21 | Active | Active | Active | inhibition [28]: Active; inhibition [29]: Active; Activity [30]: inactive; Activity [31]: Active
O=C(/C=C/C=C/c1ccccc1)OCc1ccc(NC(=O)c2ccc([N+](=O)[O-])o2)cc1 | – | – | – | – | – | – | 7.43 | – | 0.53 | – | – | – | –
O=C(/C=C/C=C/c1ccccc1)OCCc1ccc(NC(=O)c2ccc([N+](=O)[O-])o2)cc1 | – | – | 7.89 | – | – | 4.6 | 6.34 | – | 2.62 | – | – | – | –
